Data reported in US12419308B2, “Phenylpyrazole insecticide compounds and compositions” (priority 2023, dated 2025).

Experiments:
[1] = system: adult worker honeybees, Apis mellifera L; test: Acute oral toxicity test in honeybees (OECD 213); format: in vivo
Description: Untreated 50% w/v sucrose solution with 0.2% of propanol-water solution (ratio 80%-20%) is used as a negative control.
The test item is diluted with aqueous sucrose solution 50% (w/v) to prepare the oral solutions. The bees used for the oral test are anesthetized with carbon dioxide for the time necessary to immobilize them and placed inside the test cages; 2 hours before the treatment they are starved. A volume of 200 μL (20 μL/bee) of treated diet is administered to each cage with a dispenser (e.g., a syringe without tip), weighed before and after filling.
The overall exposure period is 6 hours, during which consumption is monitored: the feeder is changed at the end of the six hours or once the treated diet has been consumed (usually within 3-4 hours). In both cases, the feeder is weighed and a new feeder with untreated 50% (w/v) sucrose solution is provided ad libitum, and the mean effective dose is calculated based on the actual consumption.

[2] = Egg concentration analysis from topically treated chickens; format: in vivo; settings: eggs from Day 5
Description: One animal is left untreated as a negative control.
A modified and optimized QuEChERS protocol was employed to extract the compounds from eggs. The shell is manually removed, and then each egg is transferred to a clean beaker and homogenized with an electric mixer for small volumes. 5 grams of homogenized egg is put into a 50 mL Falcon tube, and 5 mL of water is added and the samples are shaken for 10 minutes. Next, 10 mL of acetonitrile is added and the samples are shaken again for 10 minutes. Then the roQ salts (4.0 g MgSO4, 1.0 g NaCl, 1.0 SCTD and 0.5 g SCDS, Phenomenex P/N KS08909) are added to each sample, and the mixture is well shaken for 10 minutes. Samples are then centrifuged at 2500 g for 5 minutes at room temperature, and the supernatant is transferred to an HPLC vial for analysis. The same HPLC-MS method is used as described above.
One egg from two chickens is analyzed: one chicken treated with Fipronil and one chicken treated with the Compound of Example 1. The eggs are both from Day 5. The results are shown in the following tables expressed as relative LC-MS peak area: […]

[3] = Plasma concentration analysis in topically treated chickens; settings: Compound of Example 1 treatment, topical spray 7.5 mg/kg once daily
Description: To explore the therapeutic potential of the compounds of the present disclosure, live chickens with mite infestation (Dermanyssus gallinae) are treated topically with solutions of test compound, with Fipronil as a positive control. Test solutions are prepared by dissolving the test compound in a mixture of 2-butoxyethanol, ethanol, and water (7:2:1) to reach a final concentration of 0.25% (w/v).
The test solution is administered using a mechanical spray pump delivering 0.5 mL of solution per actuation. The test solution is sprayed over the entire surface of the animal's body from a distance of 10-20 centimeters, resulting in direct contact of the solution with the animal's skin. The dosage applied to each animal is 3 mL/kg, equivalent to 7.5 mg/kg (kg live weight). The dosage is achieved using six actuations of the spray per kg of body weight per day. The treatment is administered once daily for 5 days at 24 hours intervals. One animal is left untreated as a negative control.
Blood samples are taken from each animal before the first treatment (T=0), and at 24-hour intervals thereafter. Each egg produced after a treatment is collected for later analysis.
Plasma samples are derived from each blood sample using standard procedures immediately after blood collection. Plasma is stored frozen at −80° C. until the time of analysis. Samples are then thawed at room temperature and extraction is performed by solid phase extraction (SPE) (Strata-X 33. Polymeric Reversed Phase, 60 mg/3 mL, Phenomenex) on an aliquot of sample (100 μl) pretreated for protein precipitation with 300 μl of acetonitrile. After protein precipitation, the samples are well vortexed and then centrifuged (12000 rpm, 10 min, RT). Supernatant is collected and transferred to clean Falcon tubes and diluted with 3 ml of water. Strata-X columns are conditioned with 2 ml of methanol and with 2 ml of water. Samples are loaded after conditioning, and the columns are washed with 2 ml of water, and analytes are eluted with 2 nil of methanol, dried under nitrogen and then resuspended in 100 μl of acetonitrile for mass spectral analysis.
A Thermo Q-exactive mass spectrometer (Thermo Fisher Scientific, Waltham, MA) is used. The LC system, governed by Chromeleon X-press software, consists of a binary pump, a thermostated autosampler, and a column compartment, all Dionex Ultimate 3000 series modules (Thermo Fisher Scientific, Waltham, MA). A volume of 2 μL is injected for each sample. Chromatographic separation of analytes is conducted in reverse-phase chromatography. A Luna Omega 1.6 μm Polar (CIS, 2.1 mm×100 mm) is used, and the mobile phases are (A) water and (B) acetonitrile, both containing 0.1% v/v formic acid. […]
Plasma samples from Day 3 and Day 5 are analyzed.

Structure (SMILES): N#Cc1nn(-c2c(Cl)cc(C(F)(F)F)cc2Cl)c2nc(O)cc(C(F)(F)F)c12 [Example 1, 1-(2,6-dichloro-4-(trifluoromethyl)phenyl)-6-hydroxy-4-(trifluoromethyl)-1H-pyrazolo[3,4-b]pyridine-3-carbonitrile]
- % CM (4 hours) ([1]; group T1, dose 0.002 μg/bee): 0.0%
- % CM (24 hours) ([1]; group T1, dose 0.002 μg/bee): 0.0%
- % CM (48 hours) ([1]; group T1, dose 0.002 μg/bee): 0.0%
- % CM (4 hours) ([1]; group T2, dose 0.004 μg/bee): 0.0%
- % CM (24 hours) ([1]; group T2, dose 0.004 μg/bee): 19.2%
- % CM (48 hours) ([1]; group T2, dose 0.004 μg/bee): 17.4%
- % CM (4 hours) ([1]; group T3, dose 0.006 μg/bee): 0.0%
- % CM (24 hours) ([1]; group T3, dose 0.006 μg/bee): 15.4%
- % CM (48 hours) ([1]; group T3, dose 0.006 μg/bee): 13.0%
- Accumulation in eggs of treated chickens compared to Fipronil [2]: substantially less accumulation in the eggs
- Plasma concentration of analyte ([3]; Chicken 3, 3 days): 0.01 ppm
- Plasma concentration of analyte ([3]; Chicken 3, 5 days): 0.03 ppm
- Plasma concentration of analyte ([3]; Chicken 4, 3 days): 0.7 ppm
- Plasma concentration of analyte ([3]; Chicken 4, 5 days): 1.2 ppm
